# Laboratory results reported in patent US11033539B2, “Compounds of formulas (VII), (VIII), (IX), (XI), (XII), (XIII), and (XIV) as muscarinic receptor 4(M4) antagonists for treating neurological diseases” (Neurocrine Biosciences, Inc., priority 2015, dated 2021).
# Legend:
# human M1 receptor = human M1 receptor (Homo sapiens (Human), UniProt P11229); test: Radioligand (tritiated N-methylscopolamine) binding assay, M1; details: CHO cell membranes expressing human M1; 1.5 nM tritiated N-methylscopolamine; 90 min, 37° C.; read-out: Ki against M1 receptor (Table 21, M1)
# Sequence of human M1 receptor (P11229 whole entry): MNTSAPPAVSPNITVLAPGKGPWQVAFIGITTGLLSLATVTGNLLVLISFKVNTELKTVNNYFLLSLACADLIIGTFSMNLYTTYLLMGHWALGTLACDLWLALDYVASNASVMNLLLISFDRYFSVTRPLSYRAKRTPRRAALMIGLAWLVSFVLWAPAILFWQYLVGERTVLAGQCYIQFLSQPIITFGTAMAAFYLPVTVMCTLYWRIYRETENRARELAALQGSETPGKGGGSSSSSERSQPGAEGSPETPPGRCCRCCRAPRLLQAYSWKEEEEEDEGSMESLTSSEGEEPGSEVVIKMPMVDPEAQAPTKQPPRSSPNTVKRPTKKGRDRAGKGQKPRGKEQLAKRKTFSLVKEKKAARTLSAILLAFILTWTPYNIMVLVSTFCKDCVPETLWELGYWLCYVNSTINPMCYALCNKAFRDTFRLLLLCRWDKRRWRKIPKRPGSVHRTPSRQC
# Procedure, shortened: (§1)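 Compounds were tested at twelve concentrations ranging from 10 μM to […] against 1.5 nM radioligand on CHO cell membranes expressing each subtype. Incubation lasts 90 min at 37 °C in HEPES-buffered saline with Mg2+ and EDTA, pH 7.4, and filtration then separates bound radioligand.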
# human M2 receptor = human M2 receptor (Homo sapiens (Human), UniProt P08172); test: Radioligand (tritiated N-methylscopolamine) binding assay, M2; details: CHO cell membranes expressing human M2; 1.5 nM tritiated N-methylscopolamine; 90 min, 37° C.; read-out: Ki against M2 receptor (Table 21, M2)
# Sequence of human M2 receptor (P08172 whole entry): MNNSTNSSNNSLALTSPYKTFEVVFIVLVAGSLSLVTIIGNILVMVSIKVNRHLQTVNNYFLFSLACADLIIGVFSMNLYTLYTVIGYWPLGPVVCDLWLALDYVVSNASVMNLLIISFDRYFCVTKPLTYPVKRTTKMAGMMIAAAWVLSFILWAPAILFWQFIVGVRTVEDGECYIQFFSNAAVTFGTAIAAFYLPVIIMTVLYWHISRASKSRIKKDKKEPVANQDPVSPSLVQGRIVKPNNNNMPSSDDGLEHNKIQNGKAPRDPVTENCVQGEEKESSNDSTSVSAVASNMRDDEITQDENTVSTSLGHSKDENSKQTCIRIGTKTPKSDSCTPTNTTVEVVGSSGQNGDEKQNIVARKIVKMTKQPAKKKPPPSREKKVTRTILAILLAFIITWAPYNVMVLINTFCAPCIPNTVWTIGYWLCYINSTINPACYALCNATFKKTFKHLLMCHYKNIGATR
# Procedure, shortened: as §1
# human M5 receptor = human M5 receptor (Homo sapiens (Human), UniProt P08912); test: Radioligand (tritiated N-methylscopolamine) binding assay, M5; details: CHO cell membranes expressing human M5; 1.5 nM tritiated N-methylscopolamine; 90 min, 37° C.; read-out: Ki against M5 receptor (Table 21, M5)
# Sequence of human M5 receptor (P08912 whole entry): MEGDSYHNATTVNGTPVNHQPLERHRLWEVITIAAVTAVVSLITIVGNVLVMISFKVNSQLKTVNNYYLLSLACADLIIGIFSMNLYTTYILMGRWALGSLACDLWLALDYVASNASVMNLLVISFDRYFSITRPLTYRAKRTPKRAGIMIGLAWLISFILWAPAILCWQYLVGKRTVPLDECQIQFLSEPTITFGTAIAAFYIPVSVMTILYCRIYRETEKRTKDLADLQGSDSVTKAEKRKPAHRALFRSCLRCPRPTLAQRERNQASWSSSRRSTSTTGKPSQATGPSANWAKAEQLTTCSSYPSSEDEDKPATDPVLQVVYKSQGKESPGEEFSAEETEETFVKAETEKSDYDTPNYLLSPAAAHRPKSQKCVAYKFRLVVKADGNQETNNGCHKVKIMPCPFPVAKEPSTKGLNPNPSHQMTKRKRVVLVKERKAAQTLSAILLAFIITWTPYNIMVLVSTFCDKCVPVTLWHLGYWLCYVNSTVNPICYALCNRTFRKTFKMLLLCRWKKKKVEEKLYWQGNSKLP
# Procedure, shortened: as §1
# human M4 receptor = human M4 receptor (Homo sapiens (Human), UniProt P08173); test: Radioligand (tritiated N-methylscopolamine) binding assay, M4; details: Ki against the M4 receptor; membranes from CHO cells expressing human M4; tritiated N-methylscopolamine 1.5 nM; read-out: Ki
# Sequence of human M4 receptor (P08173 whole entry): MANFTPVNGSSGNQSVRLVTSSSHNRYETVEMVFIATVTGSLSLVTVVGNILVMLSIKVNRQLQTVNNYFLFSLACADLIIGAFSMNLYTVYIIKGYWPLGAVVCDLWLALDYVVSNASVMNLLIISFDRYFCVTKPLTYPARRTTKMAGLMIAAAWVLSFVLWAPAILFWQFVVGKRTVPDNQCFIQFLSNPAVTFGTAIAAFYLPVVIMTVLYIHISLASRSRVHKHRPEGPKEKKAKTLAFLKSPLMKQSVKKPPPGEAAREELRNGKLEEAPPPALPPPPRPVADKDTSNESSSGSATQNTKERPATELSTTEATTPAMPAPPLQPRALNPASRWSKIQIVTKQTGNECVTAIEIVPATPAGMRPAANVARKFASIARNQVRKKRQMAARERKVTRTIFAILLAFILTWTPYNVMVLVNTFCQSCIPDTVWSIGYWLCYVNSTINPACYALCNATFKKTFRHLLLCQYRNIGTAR
# Procedure, shortened: as §1
# human M3 receptor = human M3 receptor (Homo sapiens (Human), UniProt P20309); test: Radioligand (tritiated N-methylscopolamine) binding assay, M3; details: CHO cell membranes expressing human M3; 1.5 nM tritiated N-methylscopolamine; 90 min, 37° C.; read-out: Ki against M3 receptor (Table 21, M3)
# Sequence of human M3 receptor (P20309 whole entry): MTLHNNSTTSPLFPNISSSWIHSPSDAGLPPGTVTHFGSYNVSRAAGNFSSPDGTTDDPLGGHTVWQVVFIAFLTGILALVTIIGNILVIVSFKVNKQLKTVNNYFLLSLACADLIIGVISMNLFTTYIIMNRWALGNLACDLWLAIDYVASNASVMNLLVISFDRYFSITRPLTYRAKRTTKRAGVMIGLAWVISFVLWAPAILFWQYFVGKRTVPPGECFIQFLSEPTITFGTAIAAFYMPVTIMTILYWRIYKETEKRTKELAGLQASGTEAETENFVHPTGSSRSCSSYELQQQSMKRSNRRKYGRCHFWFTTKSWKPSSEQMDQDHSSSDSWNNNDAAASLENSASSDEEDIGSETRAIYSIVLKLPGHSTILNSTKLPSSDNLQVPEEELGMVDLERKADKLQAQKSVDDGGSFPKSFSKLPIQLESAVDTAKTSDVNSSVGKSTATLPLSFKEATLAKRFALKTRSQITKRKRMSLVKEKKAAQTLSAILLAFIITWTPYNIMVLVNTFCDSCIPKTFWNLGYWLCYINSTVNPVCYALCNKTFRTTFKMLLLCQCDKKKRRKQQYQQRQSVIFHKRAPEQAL
# Procedure, shortened: as §1
structure (smiles),measurement,setting,value
"C[C@@H]1CN(c2ncc(C#N)cn2)C[C@H](C)N1C(=O)NCCC1CCN(Cc2ccc3[nH]ccc3c2)CC1 [6-47, (2R,6S)-4-(5-cyanopyrimidin-2-yl)-N-{2-[1-(1H-indol-5-ylmethyl)-piperidin-4-yl]ethyl}-2,6-dimethylpiperazine-1-carboxamide]",Ki,human M1 receptor,100 to 1000 nM
same,Ki,human M2 receptor,< 10 nM
same,Ki,human M5 receptor,100 to 1000 nM
same,Ki,human M4 receptor,< 10 nM
same,Ki,human M3 receptor,100 to 1000 nM
"C[C@@H]1CN(c2ncc(C#N)cn2)C[C@H](C)N1C(=O)NCCC1CCN(Cc2ccc(F)cc2)CC1 [6-48, (2R,6S)-4-(5-cyanopyrimidin-2-yl)-N-(2-{1-[(4-fluorophenyl)methyl]-piperidin-4-yl}ethyl)-2,6-dimethylpiperazine-1-carboxamide]",Ki,human M1 receptor,> 1000 nM
same,Ki,human M2 receptor,10 to 100 nM
same,Ki,human M5 receptor,> 1000 nM
same,Ki,human M4 receptor,< 10 nM
same,Ki,human M3 receptor,> 1000 nM
"C[C@@H]1CN(c2cnc(C(F)(F)F)nc2)C[C@H](C)N1C(=O)NCCC1CCN(Cc2ccc3[nH]ccc3c2)CC1 [6-50, (2R,6S)-N-{2-[1-(1H-indol-5-ylmethyl)piperidin-4-yl]ethyl}-2,6-dimethyl-4-[2-(trifluoromethyl)pyrimidin-5-yl]piperazine-1-carboxamide]",Ki,human M1 receptor,100 to 1000 nM
same,Ki,human M2 receptor,10 to 100 nM
same,Ki,human M5 receptor,> 1000 nM
same,Ki,human M4 receptor,< 10 nM
same,Ki,human M3 receptor,100 to 1000 nM
"C[C@@H]1CN(c2cc(F)c(F)c(F)c2)CCN1C(=O)NCCC1(O)CCN(Cc2ccccc2)CC1 [7-1, (2R)-N-[2-(1-benzyl-4-hydroxypiperidin-4-yl)ethyl]-2-methyl-4-(3,4,5-trifluorophenyl)piperazine-1-carboxamide]",Ki,human M1 receptor,> 1000 nM
same,Ki,human M2 receptor,> 1000 nM
same,Ki,human M5 receptor,> 1000 nM
same,Ki,human M4 receptor,< 10 nM
same,Ki,human M3 receptor,> 1000 nM
"C[C@@H]1CN(c2ccc(F)c(C(F)F)c2)CCN1C(=O)NCCC1CCN(Cc2ccccc2)CC1 [7-9, (2R)-N-[2-(1-benzylpiperidin-4-yl)ethyl]-4-[3-(difluoromethyl)-4-fluorophenyl]-2-methylpiperazine-1-carboxamide]",Ki,human M1 receptor,100 to 1000 nM
same,Ki,human M2 receptor,100 to 1000 nM
same,Ki,human M5 receptor,> 1000 nM
same,Ki,human M4 receptor,< 10 nM
same,Ki,human M3 receptor,> 1000 nM
"C[C@@H]1CN(c2ccc(OC(F)(F)F)c(C#N)c2)CCN1C(=O)NC[C@H](O)C1CCN(Cc2ccccc2)CC1 [7-10, (2R)-N-[(2R)-2-(1-benzylpiperidin-4-yl)-2-hydroxyethyl]-4-[3-cyano-4-(trifluoromethoxy)phenyl]-2-methylpiperazine-1-carboxamide]",Ki,human M1 receptor,> 1000 nM
same,Ki,human M2 receptor,100 to 1000 nM
same,Ki,human M5 receptor,> 1000 nM
same,Ki,human M4 receptor,< 10 nM
same,Ki,human M3 receptor,> 1000 nM
"C[C@@H]1CN(c2ccc(F)c(C#N)c2)CCN1C(=O)NCCC1(O)CCN(Cc2ccccc2)CC1 [7-11, (2R)-N-[2-(1-benzyl-4-hydroxypiperidin-4-yl)ethyl]-4-(3-cyano-4-fluorophenyl)-2-methylpiperazine-1-carboxamide]",Ki,human M1 receptor,> 1000 nM
same,Ki,human M2 receptor,> 1000 nM
same,Ki,human M5 receptor,> 1000 nM
same,Ki,human M4 receptor,< 10 nM
same,Ki,human M3 receptor,> 1000 nM
"C[C@@H]1CN(c2ccc(F)c(C#N)c2)CCN1C(=O)NC[C@H](O)C1CCN(Cc2ccccc2)CC1 [7-12, (2R)-N-[(2R)-2-(1-benzylpiperidin-4-yl)-2-hydroxyethyl]-4-(3-cyano-4-fluorophenyl)-2-methylpiperazine-1-carboxamide]",Ki,human M1 receptor,> 1000 nM
same,Ki,human M2 receptor,> 1000 nM
same,Ki,human M5 receptor,> 1000 nM
same,Ki,human M4 receptor,< 10 nM
same,Ki,human M3 receptor,> 1000 nM
"O=C(NCCC1CCN(Cc2ccccc2)CC1)N1CCC(c2ccc(C(F)(F)F)cc2)CC1 [8-1, N-[2-(1-benzylpiperidin-4-yl)ethyl]-4-[4-(trifluoromethyl)phenyl]piperidine-1-carboxamide]",Ki,human M1 receptor,100 to 1000 nM
same,Ki,human M2 receptor,100 to 1000 nM
same,Ki,human M5 receptor,100 to 1000 nM
same,Ki,human M4 receptor,< 10 nM
same,Ki,human M3 receptor,100 to 1000 nM
"N#Cc1cnc(N2CC3CCC(C2)N3C(=O)NCCC2CCN(Cc3ccccc3)CC2)nc1 [8-48, N-[2-(1-benzylpiperidin-4-yl)ethyl]-3-(5-cyanopyrimidin-2-yl)-3,8-diazabicyclo[3.2.1]octane-8-carboxamide]",Ki,human M1 receptor,10 to 100 nM
same,Ki,human M2 receptor,< 10 nM
same,Ki,human M5 receptor,100 to 1000 nM
same,Ki,human M4 receptor,< 10 nM
same,Ki,human M3 receptor,100 to 1000 nM
"O=C(NCCC1CCN(Cc2ccccc2)CC1)C1CCN(c2ccc(OC(F)(F)F)cc2)CC1 [9-1, N-[2-(1-benzylpiperidin-4-yl)ethyl]-1-[4-(trifluoromethoxy)phenyl]piperidine-4-carboxamide]",Ki,human M1 receptor,> 1000 nM
same,Ki,human M2 receptor,100 to 1000 nM
same,Ki,human M5 receptor,> 1000 nM
same,Ki,human M4 receptor,< 10 nM
same,Ki,human M3 receptor,> 1000 nM
"C[C@@H]1CN(c2cc(F)cc(C#N)c2)CCN1C(=O)NC[C@@H](O)C1CCN(Cc2ccccc2)CC1 [9-5, (2R)-N-[(2S)-2-(1-benzylpiperidin-4-yl)-2-hydroxyethyl]-4-(3-cyano-5-fluorophenyl)-2-methylpiperazine-1-carboxamide]",Ki,human M1 receptor,> 1000 nM
same,Ki,human M2 receptor,> 1000 nM
same,Ki,human M5 receptor,> 1000 nM
same,Ki,human M4 receptor,< 10 nM
same,Ki,human M3 receptor,> 1000 nM
"O=C(NCCC1CCN(Cc2ccccc2)CC1)c1ccc(-c2ccc(OC(F)(F)F)cc2)cc1F [9-6, N-[2-(1-benzylpiperidin-4-yl)ethyl]-2-fluoro-4-[4-(trifluoromethoxy)phenyl]benzamide]",Ki,human M1 receptor,100 to 1000 nM
same,Ki,human M2 receptor,10 to 100 nM
same,Ki,human M5 receptor,100 to 1000 nM
same,Ki,human M4 receptor,< 10 nM
same,Ki,human M3 receptor,100 to 1000 nM
"O=C(NCCC1CCN(Cc2ccccc2)CC1)c1ccc(-c2ccc(OC(F)(F)F)cc2)cc1 [9-7, N-[2-(1-benzylpiperidin-4-yl)ethyl]-4-[4-(trifluoromethoxy)phenyl]benzamide]",Ki,human M1 receptor,100 to 1000 nM
same,Ki,human M2 receptor,100 to 1000 nM
same,Ki,human M5 receptor,> 1000 nM
same,Ki,human M4 receptor,< 10 nM
same,Ki,human M3 receptor,> 1000 nM
"O=C(NCC(O)C1CCN(Cc2ccccc2)CC1)C1CCN(c2ccc(OC(F)(F)F)cc2)CC1 (centres unmarked) [9-8, N-[2-(1-benzylpiperidin-4-yl)-2-hydroxyethyl]-1-[4-(trifluoromethoxy)phenyl]piperidine-4-carboxamide]",Ki,human M1 receptor,> 1000 nM
same,Ki,human M2 receptor,100 to 1000 nM
same,Ki,human M5 receptor,> 1000 nM
same,Ki,human M4 receptor,< 10 nM
same,Ki,human M3 receptor,> 1000 nM
"O=C(NCCC1(O)CCN(Cc2ccccc2)CC1)C1CCN(c2ccc(OC(F)(F)F)c(F)c2)CC1 [9-9, N-[2-(1-benzyl-4-hydroxypiperidin-4-yl)ethyl]-1-[3-fluoro-4-(trifluoromethoxy)phenyl]piperidine-4-carboxamide]",Ki,human M1 receptor,100 to 1000 nM
same,Ki,human M2 receptor,100 to 1000 nM
same,Ki,human M5 receptor,> 1000 nM
same,Ki,human M4 receptor,< 10 nM
same,Ki,human M3 receptor,> 1000 nM
"C[C@@H]1CN(c2ccc(OC(F)(F)F)c(C#N)c2)CCN1C(=O)NCC[C@H]1CCN(Cc2ccccc2)C1 [9-10, (2R)-N-{2-[(3S)-1-benzylpyrrolidin-3-yl]ethyl}-4-[3-cyano-4-(trifluoromethoxy)phenyl]-2-methylpiperazine-1-carboxamide]",Ki,human M1 receptor,100 to 1000 nM
same,Ki,human M2 receptor,100 to 1000 nM
same,Ki,human M5 receptor,> 1000 nM
same,Ki,human M4 receptor,< 10 nM
same,Ki,human M3 receptor,100 to 1000 nM
"O=C(NCCC1CCN(Cc2ccccc2)CC1CO)C1CCN(c2ccc(OC(F)(F)F)cc2)CC1 (centres unmarked) [9-62, N-{2-[1-benzyl-3-(hydroxymethyl)piperidin-4-yl]ethyl}-1-[4-(trifluoromethoxy)phenyl]piperidine-4-carboxamide]",Ki,human M1 receptor,100 to 1000 nM
same,Ki,human M2 receptor,100 to 1000 nM
same,Ki,human M5 receptor,> 1000 nM
same,Ki,human M4 receptor,< 10 nM
same,Ki,human M3 receptor,> 1000 nM
"O=C(NCCC1CCN(Cc2ccccc2)CC1)C1CCN(c2ncc(C(F)(F)F)cc2Cl)CC1 [9-63, N-[2-(1-benzylpiperidin-4-yl)ethyl]-1-[3-chloro-5(trifluoromethyl)pyridin-2-yl]piperidine-4-carboxamide]",Ki,human M1 receptor,10 to 100 nM
same,Ki,human M2 receptor,< 10 nM
same,Ki,human M5 receptor,100 to 1000 nM
same,Ki,human M4 receptor,< 10 nM
same,Ki,human M3 receptor,10 to 100 nM
